Measurements: patent publication US10053422B2, “Compounds for the treatment of mTOR pathway related diseases” (Pitney Pharmaceuticals Pty Limited, priority 2012, dated 2018)

Test system: nicotinic receptors
Assay: MPL antiproliferative effect after pre-treatment with nicotinic agonists or antagonists
Type: cell-based
Details: MPL 5 μM, 72 h; 30 min pre-treatment
Protocol: Cells were pre-treated (30 min) with increasing concentrations of nicotine, carbachol or the receptor antagonists, atropine, mecamylamine, tubocurarine, and α-bungarotoxin. MPL (5 μM) was added and left in the cell culture incubator for 72 h. Each drug concentration was tested in quadruplicate and each experiment was repeated twice. Combine values (mean±SEM) are presented as % control.
In brief, MPL and MPL-SO2 were tested in vitro against a wide range of cancer cell-lines with extensively different disease characteristics. For further detailed studies, human ovarian cancer cell lines OVCAR-3 and A2780 were chosen. Additionally, normal human ovarian surface epithelial cells (HOSE) and were cultured in the presence of MPL (0, 5, 10, 25, 50 and 100 μM) for 72 h. Cell viability was assessed using Trypan blue assay (FIG. 9). Similarly, effect of MPL on the growth of normal epithelial, endothelial, embryonic and fetal cells were investigated (FIG. 10) while cell proliferation was assessed using the SRB assay (FIG. 11). Control (vehicle treated) cells were taken to present 100% proliferation and the MPL treated groups are expressed as percentage of control±SEM. Each drug concentration was tested in quadruplicate and each experiment was repeated at least twice. For statistical comparisons, each drug treated group is compared to the control group using Student's t test. […]

In the case of C[C@](C#N)(COc1cc(C#N)ccc1C(F)(F)F)NC(=O)c1ccc(SC(F)(F)F)cc1 [MPL, N-[(1S)-1-Cyano-2-(5-cyano-2-trifluoromethyl-phenoxy)-1-methyl-ethyl]-4-trifluoromethylsulfanyl-benzamide], the “MPL-induced inhibition after pre-treatment with nicotinic agonists or antagonists” value is reported as “neither positively nor negatively affected”.
